Patent US20170153225A1, “A METHOD OF SCREENING FOR A COMPOUND CAPABLE OF STIMULATING GLUCOSE TRANSPORT INTO BROWN AND/OR BRITE ADIPOCYTES OF A MAMMAL, A KIT FOR USE IN SUCH A METHOD” (ATROGI AB, priority 2014, published 2017)

Legend:
GLUT1 [1] = assay: Immunocytochemistry of plasma membrane GLUT1 (translocation) in non-permeabilized cells; assay type: cell-based, NMRI mice; conditions: KU 0063794 1 μM, isoproterenol 1 μM, 2 h, p=0.0153, n=3
Experimental: (§1) Brown adipocytes were isolated as described in Example 1 and seeded onto BD Falcon culture chamber slides (BD Biosciences, Franklin Lakes, N.J.). Cells were serum starved the night prior to experiment. On day 7 the cells were challenged with inhibitors for 30 min before being stimulated for 1-2 hours with drugs as indicated. Cells were washed with warm PBS and fixed for 15 min (4% formaldehyde in PBS). Cells were washed with PBS and formaldehyde quenched with 50 mM glycine in PBS, and washed three times for 5 min each with PBS. Cells were blocked for 1 h at room temperature with 8% BSA in PBS, and washed three times for 5 min each with PBS. For permeabilizing the cells, the cells were treated with 10% triton x in PBS (dilution 1:40) before blocking. Primary antibody (2 μg/ml GLUT1 antibody (AbCam, Cambridge, UK), 1.5% BSA in PBS) was added and slides incubated over night at 4° C. The next day the cells were washed three times for 5 min each with PBS. Slides were then incubated with secondary antibody (3 μg/ml alexa488 conjugated goat antirabbit IgG (Invitrogen, Paisley, UK), 3% BSA in PBS) and washed three times for 5 min each with PBS. Slides were mounted with mounting media (8% 1,4-diazabicyclooctane, 75% glycerol in PBS) and sealed.

BAT = assay: Glucose uptake in brown fat (BAT) in vivo, [3H]-2DG; design: species or system FVB mice; conditions: n=5
Experimental: Groups of FVB mice were fasted for 5 hours prior to study and anesthetized with pentobarbital (60 mg per kg of body weight, i.p.). Mice were then injected with a specific mTOR inhibitor KU 0063794 (10 mg/kg i.p.) or DMSO as control. Isoproterenol (1 mg/kg ip) or saline were injected after 10 min and [^3H]-2DG (130 μCi/kg body weight ip) 20 min prior to end time. BAT was dissected […], and tissues digested with 0.5M NaOH overnight. Glucose uptake was measured by liquid scintillation counting. All experiments were conducted with ethical permission (N388/12) from the North Stockholm Animal Ethics Committee.

GLUT1 [2] = assay: Immunocytochemistry of total cellular GLUT1 in permeabilized cells; assay type: cell-based, NMRI mice; conditions: isoproterenol 1 μM, 2 h
Experimental: as §1

GLUT1 [3] = assay: Western blot of total GLUT1 protein content; assay type: cell-based, NMRI mice; conditions: isoproterenol 1 μM, 0-2 h; for total GLUT1 protein content (Western blot): in presence or absence of 1 μM KU 0063794, p=0.0067 and p=0.0017, n=3
Experimental: Brown adipocytes were grown as described in Example 1 and differentiated in 12 well plates and serum starved the night prior to experiment. On day 7 the cells were challenged with inhibitors for 30 min before being stimulated with drugs as indicated. Lysates were prepared in prewarmed (65° C.) sample buffer (62.5 mM Tris pH 6.8, 2% SDS, 10% glycerol, 50 mM dithiothreitol, 0.1% bromophenol blue) and boiled for 5 min. Samples were loaded on a 8 or 12% acrylamide gel and separated for 2 hours at 100 V. Proteins were transferred to Hybond-P polyvinylidene difluoride membranes (pore size […]; Amersham Biosciences, Arlington Heights, Ill.). The primary GLUT1 antibody (diluted 1:1000) was from AbCam (Cambridge, UK). The primary antibody was detected using a secondary antibody (horseradish peroxidase-linked anti-rabbit IgG, Cell Signaling) diluted 1:2000 and enhanced chemiluminescence (ECL, Amersham Biosciences). Images were quantified using Image J 1.46r. […] Western blot of GLUT1 protein content in mature brown adipocytes was quantified after isoproterenol stimulation (1 μM, 0-2 h) in presence or absence of 1 μM KU 0063794.

mTOR = mTOR phosphorylation at Ser2481 and Ser2448 by western blot; assay type: cell-based; conditions: 1 μM isoprenaline, 2 hours
Source text: The immunoblot is representative of three experiments performed.

[4] = system: mature brown adipocytes primary cultures; assay: 2-deoxy-D-[1-3H]-glucose uptake in vitro in mature primary brown adipocytes; assay type: cell-based, NMRI mice; conditions: for glucose uptake: isoproterenol 1 μM, 2 hours, p=0.0042, n=4-6
Experimental: Brown fat primary cells were isolated from NMRI mice (3-4 week-old) purchased from Nova-SCB AB, Sweden. All experiments were conducted with ethical permission (N388/12) from the North Stockholm Animal Ethics Committee. Animals were euthanized by CO2, and brown fat precursor cells were isolated from the intrascapular, axillary and cervical brown adipocyte depots as previously described (Hutchinson, Bengtsson 2006, Hutchinson, Chernogubova et al. 2006). The tissue was minced and transferred to a HEPES-buffered solution (pH 7.4) containing 0.2% (wt/vol) crude collagenase type II. Routinely, tissue from 6 mice was digested in 10 ml of the HEPES-buffered solution. The tissue was digested for 30 minutes at 37° C., with constant vortexing. The digest was filtered through a 250 μm filter and the solution incubated on ice for 15 min to allow the mature adipocytes and fat droplets to float. The infranatant was filtered through a 25 μm filter, centrifuged (10 min, 700×g), the pellet resuspended in DMEM (4.5 g D-glucose/l) and recentrifuged. The pellet was finally resuspended in 0.5 ml cell culture medium per mouse dissected. The cell culture medium consisted of DMEM (4.5 g D-glucose/l) supplemented with 10% newborn calf serum, 2.4 nM insulin, […], 50 IU/ml penicillin, 50 μg/ml streptomycin and 25 μg/ml sodium ascorbate. Aliquots of 0.1 ml cell suspension were cultured in 12-well culture dishes with 0.9 ml of cell culture medium. Cultures were incubated in a 37° C. humidified atmosphere of 8% CO2 in air. On days 1, 3 and 5, the cell culture medium was renewed. Cells were used on day 7.
Glucose uptake in vitro was performed as previously described (Yamamoto, Hutchinson et al. 2007). On day 7 the cells were treated with inhibitors for 30 min before addition of isoproterenol for 2 hours, unless otherwise indicated. […] Reactions were terminated by washing in ice-cold PBS, cells lysed (400 μl of 0.2 M NaOH, 1 h at 60° C.) and the incorporated radioactivity determined by liquid scintillation counting.

mouse rictor = assay: Rictor knock down with siRNA, then glucose uptake or western blotting; assay type: cell-based; conditions: 2.5 μg/ml siRNA
Experimental: Primary brown adipocytes were used on day 3 and transfected with K2 Transfection System (Biontex laboratories) according to manufacturer's protocol using 2.5 μg/ml of siRNA (sequence: […]) directed against mouse rictor (from Sigma). 24 h after transfection, glucose uptake or western blotting was performed as described above.

Molecule: COc1ccc(-c2ccc3c(N4CCOCC4)nc(N4C[C@@H](C)O[C@@H](C)C4)nc3n2)cc1CO [KU 0063794]
- inhibition of isoproterenol-stimulated translocation of GLUT1 to the plasma membrane (GLUT1 [1]): prevents the translocation of GLUT1 to the plasma membrane
- reduction of isoproterenol stimulated glucose uptake in vivo (BAT; KU 0063794 before isoproterenol 1 mg/kg ip, p=0.0175): significantly reduced
- effect of mTOR inhibitor on stimulated de novo synthesis of GLUT1, permeabilized cells (GLUT1 [2]; KU 0063794 1 μM): not inhibited by inhibition of mTOR
- effect of mTOR inhibitor on isoproterenol-increased GLUT1 content (Western blot) (GLUT1 [3]; KU 0063794 1 μM): mTOR independent manner

Molecule: CC(C)NCC(O)c1ccc(O)c(O)c1 (centres unmarked) [Isoproterenol]
- mTOR phosphorylation at Ser2448 (mTOR): not at Ser2448
- glucose uptake [4]: increase glucose uptake
- glucose uptake ([4]; listed as isoproterenol): increases glucose uptake
- glucose uptake in brown fat in vivo (BAT; isoproterenol 1 mg/kg ip): stimulated glucose uptake in vivo
- total cellular GLUT1 (de novo synthesis), permeabilized cells (GLUT1 [2]; p=0.0334, n=3): de novo synthesis can be stimulated
- total GLUT1 protein content (Western blot) (GLUT1 [3]): significantly increase the amount of GLUT1
- total GLUT1 protein content (Western blot) (GLUT1 [3]; listed as isoproterenol): increased total GLUT1 content

Molecule: siRNA directed against mouse rictor: siRNA (sequence: CAGAAAGCAATCGCAACTCACCACA) directed against mouse rictor (from Sigma) (chemistry not given here)
- inhibition of isoproterenol (GPCR) stimulated glucose uptake by rictor knock down (mouse rictor; 24 h after transfection, p=0.0105, n=3): fully inhibited
- rictor protein after knock down (mouse rictor; K2 transfection system): reduction of rictor protein

Molecule: CCC(=O)N1CCN(c2ccc(-n3c(=O)ccc4cnc5ccc(-c6cnc7ccccc7c6)cc5c43)cc2C(F)(F)F)CC1 [Torin-1]
- inhibition of isoproterenol stimulated glucose uptake ([4]; Torin-1 1 μM, 30 min before isoproterenol 1 μM): full inhibition of glucose uptake
